Assay results taken from ChEMBL document CHEMBL1629519, “2-Hydroxypropyl-β-cyclodextrin strongly improves water solubility and anti-proliferative activity of pyrazolo[3,4-d]pyrimidines Src-Abl dual inhibitors” (Eur J Med Chem, 2010).
In brackets after ≈: the same amount, converted by molar mass. Activity calls are given as the source filed them. The rule behind the calls is not given here.

Experiments:
[1] = Aqueous solubility of the compound in dimethyl sulfoxide; format: physicochemical; conditions: aqueous solution with dimethyl sulfoxide
[2] = Lipophilicity, log P of the compound; format: physicochemical; conditions: octanol/water
[3] = Solubility of the compound in 30 % hydroxypropyl-beta-cyclodextrins solution; format: physicochemical; conditions: 30% hydroxypropyl-beta-cyclodextrin solution
[4] = test system: K562; experiment: Antiproliferative activity against human K562 cells after 3 days by ATP lite 1 step assay; format: functional, cell-based; conditions: K562, 72 h
[5] = Antiproliferative activity against human KU812 cells after 3 days by ATP lite 1 step assay; format: functional, cell-based; conditions: KU812, 72 h
[6] = test system: HL-60; experiment: Anti proliferative activity against human HL60 assessed as cell viability at 12.5 to 25 uM after 48 hrs by MTT assay; format: functional, cell-based
[7] = test system: SAOS-2; experiment: Anti proliferative activity against human Saos2 assessed as cell viability at 12.5 to 25 uM after 48 hrs by MTT assay; format: functional, cell-based

Row | SMILES | solubility [1] [µM] | logP [2] | solubility [3] [µM] | IC50 [4] [µM] | IC50 [5] [µM] | Activity [6] | Activity [7]
1 | CSc1nc(NCCc2cccc(F)c2)c2cnn(CC(Cl)c3ccccc3)c2n1 (configuration not stated) | 0.588 (≈ 0.26 µg/mL) | 6.44 | 790 (≈ 349 µg/mL) | – | – | – | –
2 | CSc1nc(NCCc2ccc(Cl)cc2)c2cnn(CC(Cl)c3ccccc3)c2n1 (configuration not stated) | 0.158 (≈ 0.0724 µg/mL) | 7.41 | 612 (≈ 281 µg/mL) | – | – | – | –
3 | CCCSc1nc(NCc2cccc(Cl)c2)c2cnn(CC(Cl)c3ccccc3)c2n1 (configuration not stated) | 0.107 (≈ 0.0506 µg/mL) | 7.4 | 910 (≈ 430 µg/mL) | – | – | – | –
4 | CC(O)COC[C@H]1O[C@@H]2O[C@H]3[C@H](O)[C@@H](O)[C@@H](O[C@H]4[C@H](O)[C@@H](O)[C@@H](O[C@H]5[C@H](O)[C@@H](O)[C@@H](O[C@H]6[C@H](O)[C@@H](O)[C@@H](O[C@H]7[C@H](O)[C@@H](O)[C@@H](O[C@H]8[C@H](O)[C@@H](O)[C@@H](O[C@H]1[C@H](O)[C@H]2O)O[C@@H]8COCC(C)O)O[C@@H]7COCC(C)O)O[C@@H]6COCC(C)O)O[C@@H]5COCC(C)O)O[C@@H]4COCC(C)O)O[C@@H]3COCC(C)O (some centres not stated) | – | – | – | – | – | inactive | inactive
5 | CSc1nc(NCCc2ccccc2)c2cnn(CC(Cl)c3ccccc3)c2n1 (configuration not stated) | 0.166 (≈ 0.0704 µg/mL) | – | 947 (≈ 402 µg/mL) | – | – | – | –

The next lines start with results.

Row | solubility [1] [µM] | logP [2] | solubility [3] [µM] | IC50 [4] [µM] | SMILES | IC50 [5] [µM] | Activity [6] | Activity [7]
6 | 0.295 (≈ 0.131 µg/mL) | 6.76 | 314 (≈ 140 µg/mL) | 7.19 | CSc1nc(NCc2cccc(Cl)c2)c2cnn(CC(Cl)c3ccccc3)c2n1 (configuration not stated) | 24.1 | – | –
7 | 0.512 (≈ 0.21 µg/mL) | 5.49 | 838 (≈ 344 µg/mL) | – | CSc1nc(NCc2ccccc2)c2cnn(CC(Cl)c3ccccc3)c2n1 (configuration not stated) | – | – | –
8 | 0.141 (≈ 0.0689 µg/mL) | 6.37 | 390 (≈ 191 µg/mL) | – | CSc1nc(NCc2cccc(Br)c2)c2cnn(CC(Cl)c3ccccc3)c2n1 (configuration not stated) | – | – | –
9 | – | 5.88 | – | 6.11 | CSc1nc(NCc2ccccc2F)c2cnn(CC(Cl)c3ccccc3)c2n1 (configuration not stated) | 7.87 | – | –
